Measurements as given in US20250051355A1, “COMPOUNDS, COMPOSITIONS, AND METHODS” (ACONCAGUA BIO, INC., priority 2023, published 2025).

Key:
[1] = target: human calcitonin receptor (CTR) and RAMP3 (AMY3) (Homo sapiens, UniProt O60896+P30988); experiment: Amylin Receptor cAMP Assay II; format: cell-based; conditions: COS-7/AMY3 cells, cAMP dynamic 2 kit, read-out: Amylin Receptor cAMP Stimulation Activity: EC50
Outline: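 COS-7 cells stably co-expressing human CTR and RAMP3 (AMY3) were treated with 4-fold serially diluted compounds at 2000 cells/well in HBSS with 20 mM HEPES, 0.5 mM IBMX and 0.1% casein for 30 min at 37 °C. cAMP was measured by HTRF (cAMP-d2 plus anti-cAMP cryptate, 1 h at RT) with reads at 665/615 nm.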

[2] = target: T1, human calcitonin receptor (CTR) (Homo sapiens, UniProt P30988); experiment: Calcitonin receptor (CTR) cAMP Assay; format: cell-based; conditions: COS7-human CTR Clone #2 cells, cAMP dynamic 2 kit; read-out: Calcitonin Receptor cAMP Stimulation Activity: EC50
T1 construct: expressed in transfected cells; host or cells: COS-7 (COS7-human CTR Clone #2)
T1 sequence (P30988 25-474): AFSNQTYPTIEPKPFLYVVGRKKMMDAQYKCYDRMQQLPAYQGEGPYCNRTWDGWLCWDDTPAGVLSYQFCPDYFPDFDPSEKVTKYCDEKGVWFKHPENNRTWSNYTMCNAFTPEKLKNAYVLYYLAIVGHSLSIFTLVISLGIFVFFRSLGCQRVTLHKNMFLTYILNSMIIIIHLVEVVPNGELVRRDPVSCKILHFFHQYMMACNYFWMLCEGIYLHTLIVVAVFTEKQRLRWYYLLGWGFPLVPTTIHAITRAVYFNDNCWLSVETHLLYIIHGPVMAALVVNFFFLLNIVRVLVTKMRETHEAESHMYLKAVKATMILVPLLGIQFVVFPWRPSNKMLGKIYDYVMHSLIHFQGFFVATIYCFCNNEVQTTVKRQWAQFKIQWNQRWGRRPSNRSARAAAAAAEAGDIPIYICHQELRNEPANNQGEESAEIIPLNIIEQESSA
Outline: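 COS-7 cells stably expressing human CTR (2000 cells/well) treated with 4-fold serially diluted compounds in HBSS/20 mM HEPES/0.5 mM IBMX/0.1% casein, 30 min at 37° C. cAMP quantified by HTRF (cAMP-d2 plus anti-cAMP cryptate, 1 h RT), fluorescence read at 665 and 615 nm.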

Chain of human calcitonin receptor (CTR) and RAMP3 (AMY3) (O60896 24-148, one chain of several): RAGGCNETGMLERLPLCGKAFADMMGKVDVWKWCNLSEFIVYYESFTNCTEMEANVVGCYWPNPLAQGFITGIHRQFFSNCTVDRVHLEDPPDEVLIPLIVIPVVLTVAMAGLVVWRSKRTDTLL

Row | SMILES | EC50 [1] | EC50 [2]
1 | Cc1nnc(-c2c(CCC3CCOCC3)nc3c(c2-c2cc4ccnc(NCc5ccc(C#N)nc5)c4s2)S(=O)(=O)CC3C(C)C)o1 (stereo not drawn) [Compound 131, 5-[(2-(3-isopropyl-6-(5-methyl-1,3,4-oxadiazol-2-yl)-1,1-dioxo-5-[2-(tetrahydro-2H-pyran-4-yl)ethyl]-1λ^6-thia-4-aza-7-indanyl}-1-thia-6-aza-7-indenylamino)methyl]-2-pyridinecarbonitrile] | 1490 nM | 332 nM
2 | Cc1nnc(-c2c(CCC3CCOCC3)nc3c(c2-c2cc4ccnc(NCc5cnc(C#N)c(F)c5)c4s2)S(=O)(=O)CC3C(C)C)o1 (stereo not drawn) [Compound 133, 3-fluoro-5-[(2-(3-isopropyl-6-(5-methyl-1,3,4-oxadiazol-2-yl)-1,1-dioxo-5-[2-(tetrahydro-2H-pyran-4-yl)ethyl]-1λ^6-thia-4-aza-7-indanyl}-1-thia-6-aza-7-indenylamino)methyl]-2-pyridinecarbonitrile] | 243 nM | 42.2 nM
3 | Cc1nnc(-c2c(CCC3CCOCC3)nc3c(c2-c2cc4ccnc(NCc5ccc(C#N)c(F)n5)c4s2)S(=O)(=O)CC3C(C)C)o1 (stereo not drawn) [Compound 134, 2-fluoro-6-[(2-(3-isopropyl-6-(5-methyl-1,3,4-oxadiazol-2-yl)-1,1-dioxo-5-[2-(tetrahydro-2H-pyran-4-yl)ethyl]-1-2-thia-4-aza-7-indanyl}-1-thia-6-aza-7-indenylamino)methyl]nicotinonitrile] | 1490 nM | 235 nM
4 | Cc1nnc(-c2c(CCC3CCOCC3)nc3c(c2-c2ccc4c(c2)oc(=O)n4Cc2ccc(C#N)c(F)c2)C(=O)N2CCOCC32O)o1 (stereo not drawn) [Compound 135, 4-[(6-(4a-hydroxy-7-(5-methyl-1,3,4-oxadiazol-2-yl)-9-oxo-6-[2-(tetrahydro-2H-pyran-4-yl)ethyl]-1,2,4,4a-tetrahydro-9H-3-oxa-5,9a-diazafluoren-8-yl}-2-oxo-1,3-benzoxazol-3-yl)methyl]-2-fluorobenzonitrile] | 166 nM | 5.38 nM
5 | Cc1nnc(-c2c(CCC3CC(C)OC(C)C3)nc3c(c2-c2cc4ccnc(N[C@@H]5CCc6ncccc65)c4s2)S(=O)(=O)CC3C(C)C)o1 (stereo partly drawn) [Compound 136, N—(R)-4-aza-1-indanyl(2-(5-[2-(2,6-dimethyltetrahydro-2H-pyran-4-yl)ethyl]-3-isopropyl-6-(5-methyl-1,3,4-oxadiazol-2-yl)-1,1-dioxo-1λ^6-thia-4-aza-7-indanyl}-1-thia-6-aza-7-indenyl)amine] | 309 nM | 34.9 nM
6 | Cc1nnc(-c2c(CCC3CCOCC3)nc3c(c2-c2cc4ccnc(Nc5ccc(F)c(F)c5)c4s2)S(=O)(=O)CC3C(C)C)o1 (stereo not drawn) [Compound 137] | 1970 nM | 276 nM
7 | Cc1nnc(-c2c(CCC3CCOCC3)nc3c(c2-c2cc4ccnc(Cc5ccc(F)c(F)c5)c4s2)S(=O)(=O)CC3C(C)C)o1 (stereo not drawn) [Compound 138, 7-(7-[(3,4-difluorophenyl)methyl]-1-thia-6-aza-2-indenyl}-3-isopropyl-6-(5-methyl-1,3,4-oxadiazol-2-yl)-5-[2-(tetrahydro-2H-pyran-4-yl)ethyl]-1λ^6-thia-4-aza-1,1-indandione] | 869 nM | 115 nM
8 | Cc1nnc(-c2c(CCc3ccc(F)cc3)nc3c(c2-c2cc4ccnc(N[C@@H]5CCc6ncccc65)c4s2)c(=O)n2n3CCC2)o1 [Compound 139, 9-(7-[(R)-4-aza-1-indanylamino]-1-thia-6-aza-2-indenyl}-11-[2-(p-fluorophenyl)ethyl]-10-(5-methyl-1,3,4-oxadiazol-2-yl)-2,6,12-triazatricyclo[6.4.0.0^2,6]dodeca-1(8),9,11-trien-7-one] | 150 nM | 8.78 nM
9 | Cc1nnc(-c2c(CCc3ccc(F)cc3)nc3c(c2-c2ccc4c(c2)oc(=O)n4C(C)c2ccc(C#N)c(F)c2)c(=O)n2n3CCC2)o1 (stereo not drawn) [Compound 140, 2-fluoro-4-[1-(6-(11-[2-(p-fluorophenyl)ethyl]-10-(5-methyl-1,3,4-oxadiazol-2-yl)-7-oxo-2,6,12-triazatricyclo[6.4.0.0^2,6]dodeca-1(12),8,10-trien-9-yl}-2-oxo-1,3-benzoxazol-3-yl)ethyl]benzonitrile] | 8.8 nM | 0.336 nM
10 | Cc1nnc(-c2c(CCc3ccc(F)cc3)nc3c(c2-c2cnc4c(ccn4Cc4ccc(C#N)c(F)c4)c2)c(=O)n2n3CCC2)o1 [Compound 141, 2-fluoro-4-[(5-(11-[2-(p-fluorophenyl)ethyl]-10-(5-methyl-1,3,4-oxadiazol-2-yl)-7-oxo-2,6,12-triazatricyclo[6.4.0.0]dodeca-1(12),8,10-trien-9-yl}-1H-1,7-diazainden-1-yl)methyl]benzonitrile] | 74.3 nM | 4.45 nM
11 | Cc1nnc(-c2c(CCc3ccc(F)cc3)nc3c(c2-c2ccc4c(c2)oc(=O)n4Cc2ccc(C#N)cn2)c(=O)n2n3CCC2)o1 [Compound 142, 6-[(6-{11-[2-(p-fluorophenyl)ethyl]-10-(5-methyl-1,3,4-oxadiazol-2-yl)-7-oxo-2,6,12-triazatricyclo[6.4.0.0^2,6]dodeca-1(12),8,10-trien-9-yl}-2-oxo-1,3-benzoxazol-3-yl)methyl]nicotinonitrile] | 58.9 nM | 1.23 nM
12 | Cc1nnc(-c2c(CCC3CCOCC3)nc3c(c2-c2cnc4c(ccn4Cc4ccc(C#N)c(F)c4)c2)C(=O)N[C@H]3C(C)C)o1 [Compound 143, 4-[(5-{(S)-3-isopropyl-6-(5-methyl-1,3,4-oxadiazol-2-yl)-1-oxo-5-[2-(tetrahydro-2H-pyran-4-yl)ethyl]-2,4-diaza-7-indanyl}-1H-1,7-diazainden-1-yl)methyl]-2-fluorobenzonitrile] | 79.4 nM | 6.35 nM
13 | Cc1nnc(-c2c(CCC34CCC(CC3)OC4)nc3c(c2-c2ccc4c(c2)oc(=O)n4Cc2ccc(C#N)cn2)c(=O)n2n3CCC2)o1 [Compound 144, 6-((6-[10-(5-methyl-1,3,4-oxadiazol-2-yl)-11-(2-(2-oxabicyclo[2.2.2]oct-4-yl)ethyl}-7-oxo-2,6,12-triazatricyclo[6.4.0.0^2,^6]dodeca-1(12),8,10-trien-9-yl]-2-oxo-1,3-benzoxazol-3-yl}methyl)nicotinonitrile] | 83.4 nM | 2.58 nM
14 | Cc1cc(-c2c(CCC3CCOCC3)nc3c(c2-c2ccc4c(c2)oc(=O)n4Cc2ccc(C#N)cn2)S(=O)(=O)N2CCC[C@@H]32)ccn1 [Compound 145, 6-[(6-((2S)-10-(2-methyl-4-pyridyl)-7,7-dioxo-11-[2-(tetrahydro-2H-pyran-4-yl)ethyl]-7λ^6-thia-6,12-diazatricyclo[6.4.0.0^2,6]dodeca-1(12),8,10-trien-9-yl}-2-oxo-1,3-benzoxazol-3-yl)methyl]nicotinonitrile] | 78.8 nM | 6.17 nM
15 | COc1ccnc(-c2c(CCC3CCOCC3)nc3c(c2-c2cc4ccnc(N[C@@H]5CCc6ncccc65)c4s2)S(=O)(=O)CC3C(C)C)n1 (stereo partly drawn) [Compound 146, N—(R)-4-aza-1-indanyl(2-(3-isopropyl-6-(4-methoxy-2-pyrimidinyl)-1,1-dioxo-5-[2-(tetrahydro-2H-pyran-4-yl)ethyl]-1λ^6-thia-4-aza-7-indanyl}-1-thia-6-aza-7-indenyl)amine] | 58.4 nM | 4.06 nM
